Laboratory results as given in patent US9896440B2, “Aryl substituted heterocyclyl sulfones” (GRÜNENTHAL GMBH, priority 2014, dated 2018).

Biological target: T1, Human CaV2.2 channels (Homo sapiens, UniProt Q00975)
T1 construct: expressed in transfected cells; Kir2.3 also stably co-expressed
Assay: Fluorescence assay for CaV2.2 channels using potassium depolarization to induce channel opening (FLIPR, Fluo 4)
Assay type: cell-based
Settings: 30 mM KCl assay buffer (inactivated channel state), HEK293 cells; for Activity Category: %-Inhib (CaV2.2) @3 μM @30 mM KCl: 3 μM test compound
Outline: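 HEK293 cells stably co-expressing human CaV2.2 with α2δ and β subunits plus Kir2.3, Fluo-4 loaded; compounds preincubated 15 min at 25 °C in 1 mM or 30 mM KCl buffer (inactivated state), pH 7.4. Depolarized by KCl addition; baseline-normalized peak fluorescence (ex 480/em 535 nm) gave inhibition.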

T1 sequence (Q00975 whole entry): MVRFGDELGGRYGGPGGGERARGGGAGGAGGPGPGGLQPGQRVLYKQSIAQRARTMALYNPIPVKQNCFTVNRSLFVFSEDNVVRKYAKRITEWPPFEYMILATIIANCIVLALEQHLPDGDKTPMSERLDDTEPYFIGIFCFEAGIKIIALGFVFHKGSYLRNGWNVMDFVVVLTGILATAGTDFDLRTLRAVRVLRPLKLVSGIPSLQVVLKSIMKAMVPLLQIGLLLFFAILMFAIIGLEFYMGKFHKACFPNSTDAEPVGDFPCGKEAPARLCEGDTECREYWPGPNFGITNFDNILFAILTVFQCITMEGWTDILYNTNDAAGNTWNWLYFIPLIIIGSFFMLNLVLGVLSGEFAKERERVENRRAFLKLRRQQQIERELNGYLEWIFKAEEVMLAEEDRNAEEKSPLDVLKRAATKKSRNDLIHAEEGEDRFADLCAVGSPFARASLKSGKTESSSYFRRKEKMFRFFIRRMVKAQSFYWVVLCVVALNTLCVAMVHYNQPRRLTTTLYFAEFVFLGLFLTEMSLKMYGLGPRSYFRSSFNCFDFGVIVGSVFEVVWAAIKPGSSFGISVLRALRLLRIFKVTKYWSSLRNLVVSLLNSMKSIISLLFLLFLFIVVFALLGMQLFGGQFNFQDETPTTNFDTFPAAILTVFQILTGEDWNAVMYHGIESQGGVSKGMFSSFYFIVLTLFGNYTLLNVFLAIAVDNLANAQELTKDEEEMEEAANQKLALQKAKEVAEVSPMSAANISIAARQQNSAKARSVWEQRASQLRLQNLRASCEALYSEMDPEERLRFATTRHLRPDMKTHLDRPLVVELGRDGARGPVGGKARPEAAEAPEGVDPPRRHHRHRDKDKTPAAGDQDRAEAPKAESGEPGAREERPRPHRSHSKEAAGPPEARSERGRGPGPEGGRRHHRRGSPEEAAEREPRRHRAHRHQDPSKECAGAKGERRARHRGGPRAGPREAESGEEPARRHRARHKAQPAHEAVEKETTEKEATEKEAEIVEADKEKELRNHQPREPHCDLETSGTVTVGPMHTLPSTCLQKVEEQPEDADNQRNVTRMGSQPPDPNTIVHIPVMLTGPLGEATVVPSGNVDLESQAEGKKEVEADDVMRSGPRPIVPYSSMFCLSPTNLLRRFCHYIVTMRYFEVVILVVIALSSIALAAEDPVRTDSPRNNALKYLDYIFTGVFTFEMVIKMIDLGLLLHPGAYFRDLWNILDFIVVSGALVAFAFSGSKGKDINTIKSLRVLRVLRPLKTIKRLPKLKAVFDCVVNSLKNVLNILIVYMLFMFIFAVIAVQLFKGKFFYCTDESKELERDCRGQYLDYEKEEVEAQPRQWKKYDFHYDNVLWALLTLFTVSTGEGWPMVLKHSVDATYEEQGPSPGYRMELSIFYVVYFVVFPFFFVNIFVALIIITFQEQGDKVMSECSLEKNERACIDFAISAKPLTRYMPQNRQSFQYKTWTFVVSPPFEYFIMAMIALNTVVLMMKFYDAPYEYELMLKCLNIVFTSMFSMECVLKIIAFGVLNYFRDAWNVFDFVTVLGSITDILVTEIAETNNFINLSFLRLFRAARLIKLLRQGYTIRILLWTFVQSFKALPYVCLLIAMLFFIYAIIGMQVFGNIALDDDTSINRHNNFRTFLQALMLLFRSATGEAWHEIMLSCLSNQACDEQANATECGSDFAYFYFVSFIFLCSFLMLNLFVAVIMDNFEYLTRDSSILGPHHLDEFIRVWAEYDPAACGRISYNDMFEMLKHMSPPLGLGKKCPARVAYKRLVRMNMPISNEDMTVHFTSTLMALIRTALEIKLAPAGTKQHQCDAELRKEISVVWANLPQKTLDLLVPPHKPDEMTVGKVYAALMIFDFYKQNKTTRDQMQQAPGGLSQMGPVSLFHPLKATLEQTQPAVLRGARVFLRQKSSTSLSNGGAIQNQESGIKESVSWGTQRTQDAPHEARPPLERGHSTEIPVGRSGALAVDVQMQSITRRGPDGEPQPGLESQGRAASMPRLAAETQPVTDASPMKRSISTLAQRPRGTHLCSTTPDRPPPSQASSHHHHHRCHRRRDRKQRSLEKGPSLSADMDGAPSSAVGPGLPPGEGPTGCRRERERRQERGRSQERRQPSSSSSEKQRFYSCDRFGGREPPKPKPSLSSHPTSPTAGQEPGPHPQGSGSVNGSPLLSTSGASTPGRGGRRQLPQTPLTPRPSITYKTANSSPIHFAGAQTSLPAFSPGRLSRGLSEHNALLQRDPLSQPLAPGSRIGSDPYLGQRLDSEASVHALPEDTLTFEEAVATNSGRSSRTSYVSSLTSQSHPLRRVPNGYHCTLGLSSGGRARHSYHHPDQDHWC

| SMILES | Activity Category: %-Inhib (CaV2.2) @3 μM @30 mM KCl | inhibition at 3 µM (HEK293, 3 μM test compound, read-out: Activity Category: %-Inhib (CaV2.2) @3 μM @30 mM KCl) [%] |
| --- | --- | --- |
| CC1(S(=O)(=O)c2cccc(OC(F)F)c2)CCOC(c2ccc(S(C)(=O)=O)cc2F)C1 (stereo not shown) [SC-516, 4-[[3-(Difluoro-methoxy)-phenyl]sulfonyl]-2-(2-fluoro-4-methylsulfonyl-phenyl)-4-methyl-tetrahydro-pyran] | C (%-Inhibition >40% up to ≦75%) | – |
| CC1(S(=O)(=O)c2cccc(OC(F)F)c2)CCOC(c2ccc(S(C)(=O)=O)cc2F)C1 (stereo not shown) [SC-517, 4-[[3-(Difluoro-methoxy)-phenyl]sulfonyl]-2-(2-fluoro-4-methylsulfonyl-phenyl)-4-methyl-tetrahydro-pyran] | B (%-Inhibition >75% up to ≦95%) | – |
| CC1(S(=O)(=O)c2cc(F)cc(C(F)(F)F)c2)CCOC(c2ccc(S(C)(=O)=O)cc2F)C1 (stereo not shown) [SC-518, 2-(2-Fluoro-4-methylsulfonyl-phenyl)-4-[[3-fluoro-5-(trifluoromethyl)-phenyl]sulfonyl]-4-methyl-tetrahydro-pyran] | – | 75 to 95 |
| CC1(S(=O)(=O)c2cc(F)cc(C(F)(F)F)c2)CCOC(c2ccc(S(C)(=O)=O)cc2F)C1 (stereo not shown) [SC-519, 2-(2-Fluoro-4-methylsulfonyl-phenyl)-4-[[3-fluoro-5-(trifluoromethyl)-phenyl]sulfonyl]-4-methyl-tetrahydro-pyran] | A (%-Inhibition >95%) | – |
